Patent US20230382889A1 (Volastra Therapeutics, Inc., priority 2022, published 2023)

Columns and labels:
[1] = target: KIF18a-microtubule complex (Homo sapiens (Human), UniProt Q8NI77); experiment: Binding kinetics to KIF18a-microtubule complex (global progress curve analysis); settings: for kon (on-rate from binding kinetics assay) / koff: KIF18A 0.25 nM, up to 24 hr; for koff: read-out: koff (off-rate from binding kinetics assay) (converted); for Ki: koff/kon, read-out: KI (determined from binding kinetic assay koff/kon)
Chain of KIF18a-microtubule complex (Q8NI77 1-374, one chain of several): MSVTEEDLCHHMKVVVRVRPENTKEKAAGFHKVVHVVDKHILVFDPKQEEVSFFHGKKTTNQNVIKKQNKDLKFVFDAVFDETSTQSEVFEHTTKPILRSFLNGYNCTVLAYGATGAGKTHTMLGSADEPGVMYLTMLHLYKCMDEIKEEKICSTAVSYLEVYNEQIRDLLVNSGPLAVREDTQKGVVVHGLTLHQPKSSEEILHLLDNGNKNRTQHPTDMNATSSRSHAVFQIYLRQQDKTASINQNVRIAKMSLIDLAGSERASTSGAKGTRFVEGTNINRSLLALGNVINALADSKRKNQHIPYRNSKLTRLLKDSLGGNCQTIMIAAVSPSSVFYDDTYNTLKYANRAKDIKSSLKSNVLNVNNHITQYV
Protocol: Compound binding kinetics parameters (kon and koff) were determined by the method of global progress curve analysis (GPCA). […] ADP product levels were determined by the Promega® ADP-Glo assay.

[2] = target: hKIF18A (1-374) (Homo sapiens (Human), UniProt Q8NI77); experiment: Inhibition of KIF18A microtubule-dependent ATPase activity (ADP-Glo); type: biochemical; settings: 4 nM hKIF18A (1-374)
Chain of hKIF18A (1-374) (Q8NI77 1-374): as the sequence (Q8NI77 1-374, one chain of several) above
Outline: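 Reaction was started with pre-formed microtubules and ATP (0.2 mg/mL and 2.0 mM in the added mix) and run 60 min at 28 °C. ADP was read by ADP-Glo luminescence, and IC50 came from a four-parameter fit of % inhibition.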

SMILES | IC50 [2] [nM] | other results
Cc1cc(-c2cn(-c3ccc(NS(=O)(=O)CCO)cc3N3CCCCC3)nn2)nc(N2CC(F)(F)C2)c1 [Compound 70, N-(4-(4-(6-(3,3-difluoroazetidin-1-yl)-4-methylpyridin-2-yl)-1H-1,2,3-triazol-1-yl)-3-(piperidin-1-yl)phenyl)-2-hydroxyethane-1-sulfonamide] | 27 | kon (on-rate from binding kinetics assay) [1]: 2500 M⁻¹ s⁻¹; koff [1]: 3.61e-05 s⁻¹; Ki [1]: 15 nM; disc. t1/2 (dissociation half-life ln(2)/koff) [1]: 5.4 h
CS(=O)(=O)Nc1ccc(-n2cc(-c3cccc(N4CC5CC(C4)O5)n3)nn2)c(N2CCC3(CC2)CC3)c1 [Compound 55, N-(4-(4-(6-(6-oxa-3-azabicyclo[3.1.1]heptan-3-yl)pyridin-2-yl)-1H-1,2,3-triazol-1-yl)-3-(6-azaspiro[2.5]octan-6-yl)phenyl)methanesulfonamide] | 29 | –
O=S(=O)(CCO)Nc1ccc(-c2ncc(-c3cccc(N4CCC(F)(F)CC4)n3)[nH]2)c(N2CCC3(CC2)CC3)c1 [Compound 35, N-(4-(5-(6-(4,4-difluoropiperidin-1-yl)pyridin-2-yl)-1H-imidazol-2-yl)-3-(6-azaspiro[2.5]octan-6-yl)phenyl)-2-hydroxyethane-1-sulfonamide] | 27 | –
Cc1cc(-c2cn(-c3ccc(NS(=O)(=O)CCO)cc3N3CCC4(CC3)CC4)nn2)nc(N2CCC(C(F)F)C2)n1 (stereo not drawn) [Compound 103, N-(4-(4-(2-(3-(difluoromethyl)pyrrolidin-1-yl)-6-methylpyrimidin-4-yl)-1H-1,2,3-triazol-1-yl)-3-(6-azaspiro[2.5]octan-6-yl)phenyl)-2-hydroxyethane-1-sulfonamide] | 20 | –
O=S(=O)(CCO)Nc1ccc(-n2cc(-c3ccc(F)c(N4CCCCO4)n3)nn2)c(N2CCC3(CC2)CC3)c1 [Compound 154, N-(4-(4-(5-fluoro-6-(1,2-oxazinan-2-yl)pyridin-2-yl)-1H-1,2,3-triazol-1-yl)-3-(6-azaspiro[2.5]octan-6-yl)phenyl)-2-hydroxyethane-1-sulfonamide] | 7.1 | –
O=S(=O)(CCO)Nc1ccc(-n2cc(-c3csc(N4CCCC4)n3)nn2)c(N2CCC3(CC2)CC3)c1 [Compound 81, 2-hydroxy-N-(4-(4-(2-(pyrrolidin-1-yl)thiazol-4-yl)-1H-1,2,3-triazol-1-yl)-3-(6-azaspiro[2.5]octan-6-yl)phenyl)ethane-1-sulfonamide] | 140 | –
Cc1cc(-c2cn(-c3ccc(NS(=O)(=O)CCO)cc3N3CCC4(CC4)C3)nn2)nc(N2CCC(F)(F)CC2)n1 [Compound 88, N-(4-(4-(2-(4,4-difluoropiperidin-1-yl)-6-methylpyrimidin-4-yl)-1H-1,2,3-triazol-1-yl)-3-(5-azaspiro[2.4]heptan-5-yl)phenyl)-2-hydroxyethane-1-sulfonamide] | 120 | –
CCS(=O)(=O)Nc1ccc(-n2cc(-c3cc(C)cc(C(O)C4CCCC4)n3)nn2)c(N2CCC3(CC2)CC3)c1 (stereo not drawn) [Compound 138, N-(4-(4-(6-(cyclopentyl(hydroxy)methyl)-4-methylpyridin-2-yl)-1H-1,2,3-triazol-1-yl)-3-(6-azaspiro[2.5]octan-6-yl)phenyl)ethanesulfonamide] | 26 | –
Cc1cc(-c2cn(-c3ccc(NS(=O)(=O)C4CC4)cc3N3CCC4(CC3)CC4)nn2)nc(C(O)C2CCCC2)c1 (stereo not drawn) [Compound 139, N-(4-(4-(6-(cyclopentyl(hydroxy)methyl)-4-methylpyridin-2-yl)-1H-1,2,3-triazol-1-yl)-3-(6-azaspiro[2.5]octan-6-yl)phenyl)cyclopropanesulfonamide] | 40 | –
CS(=O)(=O)Nc1ccc(-n2cc(-c3cccc(N4CCC(F)(F)CC4)n3)nn2)c(N2CC3CC(C3)C2)c1 [Compound 53, N-(3-(3-azabicyclo[3.1.1]heptan-3-yl)-4-(4-(6-(4,4-difluoropiperidin-1-yl)pyridin-2-yl)-1H-1,2,3-triazol-1-yl)phenyl)methanesulfonamide] | 43 | –
O=S(=O)(CCO)Nc1ccc(-n2cc(-c3ccc(C4=CCCC4)o3)nn2)c(N2CCC3(CC2)CC3)c1 [Compound 125, N-(4-(4-(5-(cyclopent-1-en-1-yl)furan-2-yl)-1H-1,2,3-triazol-1-yl)-3-(6-azaspiro[2.5]octan-6-yl)phenyl)-2-hydroxyethane-1-sulfonamide] | 9 | –
O=S(=O)(CCO)Nc1ccc(-n2cc(-c3ccc(C(O)C4CCCC4)o3)nn2)c(N2CCC3(CC2)CC3)c1 (single isomer, unassigned) [Compound 51a] | 2.4 | –
Cc1cc(-c2cn(-c3ccc(NS(=O)(=O)CCO)cc3N3CCCCCC3)nn2)nc(N2CCC(F)(F)CC2)n1 [Compound 75, N-(3-(azepan-1-yl)-4-(4-(2-(4,4-difluoropiperidin-1-yl)-6-methylpyrimidin-4-yl)-1H-1,2,3-triazol-1-yl)phenyl)-2-hydroxyethane-1-sulfonamide] | 7.1 | –

Continued, in another order:

IC50 [2] [nM] | SMILES | other results
6.6 | CS(=O)(=O)Nc1ccc(-c2nnc(-c3cccc(N4CCC(F)(F)CC4)n3)[nH]2)c(N2CCC3(CC2)CC3)c1 [Compound 5, N-(4-(5-(6-(4,4-difluoropiperidin-1-yl)pyridin-2-yl)-1H-1,2,4-triazol-3-yl)-3-(6-azaspiro[2.5]octan-6-yl)phenyl)methanesulfonamide] | kon (on-rate from binding kinetics assay) [1]: 16900 M⁻¹ s⁻¹; koff [1]: 2.53e-05 s⁻¹; Ki [1]: 1.5 nM; disc. t1/2 (dissociation half-life ln(2)/koff) [1]: 7.6 h
283 | CS(=O)(=O)Nc1ccc(-n2cc(-c3cccc(N4CCC(F)(F)CC4)n3)nn2)c(N2CC3CC3C2)c1 (stereo not drawn) [Compound 165, N-(3-(3-azabicyclo[3.1.0]hexan-3-yl)-4-(4-(6-(4,4-difluoropiperidin-1-yl)pyridin-2-yl)-1H-1,2,3-triazol-1-yl)phenyl)methanesulfonamide] | –
14 | CS(=O)(=O)Nc1ccc(-n2cc(-c3nccc(N4CCC(F)(F)CC4)n3)cn2)c(N2CCC3(CC2)CC3)c1 [Compound 66, N-(4-(4-(4-(4,4-difluoropiperidin-1-yl)pyrimidin-2-yl)-1H-pyrazol-1-yl)-3-(6-azaspiro[2.5]octan-6-yl)phenyl)methanesulfonamide] | –
18 | CS(=O)(=O)Nc1ccc(-n2cc(-c3cccc(N4CCC(F)(F)CC4)n3)nn2)c(N2CCCCCC2)c1 [Compound 52, N-(3-(azepan-1-yl)-4-(4-(6-(4,4-difluoropiperidin-1-yl)pyridin-2-yl)-1H-1,2,3-triazol-1-yl)phenyl)methanesulfonamide] | –
14 | CS(=O)(=O)Nc1ccc(-n2cc(-c3cccc(N4CCC(F)(F)CC4)n3)nn2)c(N2CCC(C(F)F)CC2)c1 [Compound 19, N-(3-(4-(difluoromethyl)piperidin-1-yl)-4-(4-(6-(4,4-difluoropiperidin-1-yl)pyridin-2-yl)-1H-1,2,3-triazol-1-yl)phenyl)methanesulfonamide] | –
31 | CCS(=O)(=O)Nc1ccc(-n2cc(-c3ccc(F)c(N4CCC(F)(F)CC4)n3)nn2)c(N2CCC3(CC2)CC3)c1 [Compound 148, N-(4-(4-(6-(4,4-difluoropiperidin-1-yl)-5-fluoropyridin-2-yl)-1H-1,2,3-triazol-1-yl)-3-(6-azaspiro[2.5]octan-6-yl)phenyl)ethanesulfonamide] | –
